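48-hour exposure; five concentrations; linearly interpolated endpoints. TGI: total growth inhibition.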

Common to all, as to test: NCI tumour cell line growth inhibition, 48 h
Assay [1] has as its system TK-10 renal.
Assay [2] relates to M14 melanoma.
The subject of assay [3] is IGROV1 ovarian.
Assay [4] has as its system MDA-N.
In assay [5] the test system is SNB-19 CNS.
Assay [6] deals with UACC-257 melanoma.
For assay [7], the system named is MCF7 breast.
Assay [8] deals with MOLT-4 leukemia.
Assay [9] relates to HL-60(TB) leukemia.
The subject of assay [10] is HS 578T breast.
Assay [11] has as its system SK-MEL-2 melanoma.
Assay [12] relates to UACC-62 melanoma.
Assay [13] deals with SK-MEL-5 melanoma.
The test system of assay [14] is HCT-15 colon.
The subject of assay [15] is KM12 colon.
The subject of assay [16] is SF-539 CNS.
Assay [17] concerns T-47D breast.

For the compound `Nc1ccc(Oc2ccc(C3(c4ccc(Oc5ccc(N)cc5)cc4)C4CC5C6CC7CC5C3C(C7)C6C4)cc2)cc1`, the TGI in assay [1], in assay [2], in [3], in assay [4], in assay [5] and in assay [6] was greater than 100 µM each time. Further, the TGI in assay [7], in assay [8], in assay [9], in assay [10], in [11] and in [12] was greater than 100 µM each time. Further, the TGI in assay [13] was greater than 100 µM; in assay [14] it was greater than 100 µM; in assay [15], greater than 87.8 µM; in [16], greater than 100 µM.
As to `CC1=[N+]([O-])C(C)(C)N(N=O)C1(C)C`, the TGI in [1], in assay [2], in [4], in assay [5], in assay [6] and in [7] was greater than 10 µM in each case. Further, the TGI in assay [8], in [9], in assay [11], in assay [17], in assay [14] and in [15] was greater than 10 µM each time.
As for `Oc1cccc(-c2ccc3c4c2O[C@H]2c5[nH]c6ccccc6c5C[C@@]5(O)[C@@H](C3)N(CC3CC3)CC[C@]425)c1`, the TGI came to 4.34 µM in [1]; 3.07 µM in [2]; 3.12 µM in assay [3]; 3.05 µM in [4]; 3 µM in assay [5]; 4.03 µM in assay [9]. The TGI in assay [10] amounted to 3.55 µM; in assay [11], 5.13 µM; in [13] it was 10.3 µM; in assay [14] it was 3.03 µM; in assay [15], 3.5 µM; in assay [16], 3.14 µM.
For the compound `COc1cc(C2SCC(=O)N2Cc2ccccc2)cc(OC)c1OC` (centres undefined), the TGI in assay [1], in assay [2], in [3], in assay [4], in assay [5] and in assay [6] was greater than 100 µM in each case. The TGI in assay [7], in assay [8], in [9], in assay [10], in assay [11] and in assay [12] was greater than 100 µM in each case. The TGI in assay [13], in assay [14], in [15] and in assay [16] was greater than 100 µM each time.
For `CC1(C)Oc2ccc3c(=O)c(-c4ccccc4)c(-c4ccccc4)oc3c2C1C(=O)O` (centres undefined), the TGI in [1], in assay [2], in [3], in assay [4], in assay [6] and in assay [7] was greater than 100 µM throughout. Further, the TGI in assay [8], in assay [10], in assay [11], in [12], in assay [13] and in assay [17] was greater than 100 µM throughout. The TGI in [14] and in assay [16] was greater than 100 µM throughout.
Consider `CC(C)(C)OC(=O)[C@@H]1CCC(=S)N1Cc1ccccc1`, for which the TGI in [1], in [2], in [3], in assay [4], in assay [5] and in assay [6] was greater than 100 µM each time. For the same compound, the TGI in assay [7], in assay [8], in assay [11], in assay [12], in assay [13] and in [14] was greater than 100 µM each time. For the same compound, the TGI in [15] and in [16] was greater than 100 µM throughout.
Turning to `N#CC1(C#N)NC(c2cccnc2)C(C#N)(C#N)NC1c1cccnc1` (centres undefined), the TGI in [1], in [2], in [3], in assay [4], in assay [6] and in [7] was greater than 100 µM throughout. Further, the TGI in assay [8], in assay [9], in assay [11], in assay [12], in assay [13] and in assay [17] was greater than 100 µM each time. For the same compound, the TGI in [14], in [15] and in [16] was greater than 100 µM throughout.
Turning to `CCOC(=O)[C@@H]1OC(c2ccccc2)O[C@H]1C(=O)OCC`, the TGI in assay [1], in assay [2], in [3], in [4], in assay [5] and in assay [6] was greater than 100 µM each time. The TGI in [7], in assay [8], in [10], in assay [11], in assay [12] and in [13] was greater than 100 µM each time. In addition, the TGI in [14] and in assay [15] was greater than 100 µM each time.
Take `CCSC1=N/C(=C\c2ccco2)C(NN)=N1`: the TGI in assay [1], in assay [2], in [3], in assay [4], in assay [5] and in assay [6] was greater than 50 µM each time. In addition, the TGI in [8], in assay [9], in assay [10], in [11], in [12] and in assay [13] was greater than 50 µM throughout. For the same compound, the TGI in assay [17], in assay [14], in [15] and in assay [16] was greater than 50 µM throughout.
With `O=C1c2sc(-c3ccc(F)cc3)cc2-n2cccc21`, the TGI in assay [1] was 50.7 µM; in [2], greater than 100 µM; in assay [3], 38.3 µM; in assay [4], greater than 100 µM; in [5] it was 39.6 µM; in assay [6], greater than 100 µM. In addition, the TGI in assay [7] was greater than 100 µM; in [8] it was greater than 100 µM; in assay [10] it was 62.7 µM; in [11], greater than 100 µM; in [12], greater than 100 µM; in [13], greater than 100 µM. Besides, the TGI in assay [17], in assay [14] and in [15] was greater than 100 µM in each case.

The record behind these values is PubChem BioAssay (NCI).
